Measurements: patent publication US20020065315A1, “Ion channel modulating agents” (priority 1999, published 2002)

Legend:
[1] = system: T cells; test: Inhibition of T cell proliferation (antigen PPD induced, [3H]thymidine incorporation); type: cell-based; details: PPD (10 μg/ml), 144 hours culture, mean of triplicate cultures
Method: The chemical compounds used according to the invention prevent immunological proliferation by selective inhibition of the Ca^2+-activated K-channels in T- and B-lymphocytes. This effect may be verified using various proliferation assays. In this experiment the proliferative assay described by Ødum et al [Ødum N, Kanner S B, Ledbetter J A, & Svejgaard A; J. Immunol. 1993 150 (12) 5289-5298] was used.
Assays were performed in culture medium (RPMI 1640; available from Gibco, Grand Island, N.Y.) supplemented with 10% pooled human serum, 2 mM L-glutamine, 100 μg/ml penicillin, and 100 μg/ml streptomycin (available from Novo Nordisk, Copenhagen, Denmark) in 96-well round bottom tissue culture plates (available from Nunc, Roskilde, Denmark) with a final volume of 200 μl.
T cells were pre-incubated for three hours with the test compounds before addition of antigen (PPD, purified protein derivative, 10 μg/ml). T cells were cultured at 5×10^4 cells/well for 144 hours. Twelve hours before harvest, [^3H]thymidine ([…]) was added. The cells were harvested onto glass fibre filters, and the [^3H]thymidine incorporation was measured in a scintillation counter. The results were expressed as mean counts per minute (cpm) from triplicate cultures.

| melting point [°C] | SMILES | T Cell Proliferation ([1]; test compound 2.5 μM) [cpm × 10^−3] | T Cell Proliferation ([1]; test compound 10 μM) [cpm × 10^−3] | T Cell Proliferation ([1]; test compound 25 μM) [cpm × 10^−3] |
| --- | --- | --- | --- | --- |
| – | CC(C)c1cccc(C(C)C)c1-c1cccnc1 [Compound 1B, 3-(2,6-diisopropylphenyl)-pyridine] | 19.5 | 19 | 14 |
| 178 to 180 | Cc1ccc(C)n1-c1c(-c2ccccc2)cc(Cl)cc1-c1ccccc1 | – | – | – |
